Values after ≈ are worked out from the molar mass of the structure shown. Like-named read-outs stand apart in the source and are kept apart here.
How the values were obtained:
[1] = tested on: mouse NIH 3T3 fibroblasts; assay: Proliferation of mammalian cells, NIH 3T3; type: cell-based; conditions: for Proliferation (nucleic acid synthesis): 24 hours exposure, [3H]-hypoxanthine; for Proliferation (protein synthesis): [3H]ileu incorporation, not shown
Experimental: (§1) The possibility that the reversed siderophores might affect mammalian cells in culture was assessed in conditions identical to those used for parasites in cultures. […] Nucleic acid synthesis was measured in cultures of mouse NIH 3T3 fibroblasts and human HT29 colonic carcinoma cells in the presence of either SF1-ileu (open circles), desferrioxamine (DFO) (solid triangle) in DMSO or DMSO alone (Control) (<1% final) (open triangles) at same concentrations. Cultures at confluence were exposed to chelators for 24 hours; the first 3 hours without radiolabel and 21 hours with 6 μCi/ml of [^3 H]-hypoxanthine. Extracellular hypoxanthine was removed by several washes with PBS and the cells were treated with 5% TCA for 15 minutes at 5° C. and solubilized with hot 2.5% SDS. Samples were taken for counting of radioactivity and measurement of protein (BCA, Pierce). Data are given as dpm/μg protein and SD (duplicate samples).

[2] = tested on: synchronized cultures of trophozoites (P. falciparum); assay: Time dependence of parasite growth inhibition, trophozoites; type: cell-based, Plasmodium falciparum; conditions: for Inhibitory effect, in words: trophozoites; for inhibition at 10 µg/mL: Plasmodium falciparum, read-out: Inhibition of parasite growth
Experimental: g. Bioassay of iron carrier antimalarial activity. The antimalarial activity was assayed by adding the compounds from concentrated stock solutions (in DMSO) to microcultures (24 wells, Costar) containing infected red cells (2.5% hematocrit and 2% parasitemia). The cultures were usually synchronized (4-7 hrs. windows) by incubation in 300 mM Ala, 10 mM TRIS-Cl in conjunction with gelatin flotation and used either at the trophozoite (1-2% parasitemia) or at the ring stage (4-6% parasitemia) of the erythrocyctic cycle. After the indicated time of incubation with drug and either previous to or after washing 3 times with 100 volumes growth medium, the cells were supplemented with 6 μCi of either [^3 H]-hypoxanthine or [^3 H]-Ileu (Amersham, England) per well and parasite growth assessed after 24-48 hours by harvesting the labelled cells onto glass-fiber filters (Tamar, Inc. Jerusalem) and counting of the radioactivity.
To study the growth stage of parasites most sensitive to inhibition, the time dependence of the inhibitory effect of SF1-ileu (10 μg/ml) vis a vis that of DFO (80 μg/ml) was assessed both on synchronized cultures of rings and of cultures of trophozoites. The cells were exposed to the […], the cells were washed from extracellular drug and assessed for [^3 H]-hypoxanthine incorporation after the last sample completed the 4 hours incubation period with drug.

[3] = Partition between n-octanol and saline; type: physicochemical; conditions: for rel. Pcoeff (a): Table 2, relative to L-val-n1 = 1.0
Experimental: e. Partition coefficients were obtained by overnight equilibration of the free reversed siderophores between equal volumes of n-octanol and saline. The concentrations of the ligands in each phase were determined by adding excess iron(III) and measuring the ferric complexes at 430 nm.
(§2) The values for Pcoeff of free RSF ileun2 (the same as SF1ileu) and of leun2 and their respective iron(III) complexes were similar (not shown).

[4] = Relative iron(III) binding efficiency by competition with EDTA; type: physicochemical; conditions: for Relative binding: Table 1, DFO = 100, competition with EDTA in aqueous MeOH; for rel. Fe binding (b): Table 2, relative to DFO = 1.16, 0.75 mM hydroxamate, 0.15 mM EDTA, 0.15 mM Fe3+ in aqueous methanol; for Pcoeff*Fe binding (a*b): product of relative partition coefficient and relative iron(III) binding
Experimental: c. The relative binding efficiencies of the reversed siderophores (0.75 mM reversed siderophore and 0.15 mM Fe^3+ in aqueous MeOH (MeOH-0.1N NaOAc) were incubated with EDTA (0.15 mM). After equilibration overnight, the fraction of siderophore- Fe^3+ complex present was determined at 430 nm.
as §2

infected red cells = assay: Uptake of 59Fe-carrier complexes into infected red cells; type: cell-based, human erythrocytes infected with P. falciparum
Experimental: k. Uptake of radioactive carrier-Fe complexes. DFO and the different SF derivatives were pre-complexed with iron by addition of concentrated stock solutions of 20 mg/ml carriers to ^59 FeCl3 (Amersham, England) in 0.5 ml of 150 mM NaCl, 10 mM Hepes at 3-5 molar excess of carrier for 1 hour at room temperature. To begin the flux, normal or parasitized red cells that had been washed 3 times in saline buffer and resuspended in the same buffer supplemented with 5% bovine serum albumin (BSA), 2.5 mM citrate, 2 mg/ml glucose were added to radioactive ^59 Fe-complexes at a final suspension of 20% hematocrit. After incubation at 37° C., 75 μl suspension was removed in duplicate aliquots for each time point, placed in plastic 15 ml test tube (Starstedt) and centrifuged 1 minute at 2,500 g. The supernatant was removed and the pellet immediately placed on ice. After all sampling was completed the pellets were washed twice in 15 ml of ice cold buffer containing 50 mM EDTA and lysed in distilled water. Radioactivity (Gamma emission, 700-1300 Kev) was counted and the cell number for each sample determined from hemoglobin absorption of the lysate at 410 nm.
Penetration of RSF's into normal and infected red cells was estimated by monitoring uptake of the RSF's-^59 Fe(III) complexes into infected and uninfected cells and compared to DFO. In order to confirm actual uptake of Fe-RSF ileun2 rather than adsorption to the outer membrane, cells were thoroughly washed and lysates were subjected to 80,000g×20 min centrifugation.
The carriers were pre-complexed to ^59 FeCl3 at 4:1 ration in DMSO with 5 μM external FeCl3 (from methanolic stock solutions). The radioactive complexes were then added to 20% hematocrit cell suspensions and flux was measured. […] Cell number was determined from hemoglobin absorption of lysate at 410 nm.

[5] = tested on: human HT29 colonic carcinoma cells; assay: Proliferation of mammalian cells, HT29; type: cell-based; conditions: for Proliferation (nucleic acid synthesis): 24 hours exposure, [3H]-hypoxanthine; for Proliferation (protein synthesis): [3H]ileu incorporation, not shown
Experimental: as §1

[6] = tested on: Plasmodium falciparum strain ItG2G1; assay: Antimalarial activity in various strains, ItG2G1; type: cell-based
Experimental: (§3) f. Parasite cultures. The P. falciparum strains used in the experiments: ItG2G1 (Brazil, provided by Dr. L. H. Miller), D6 (W. African, provided by Dr. A. J. M. Oduola) FCR-3 (Gambian, provided by Dr. J. B. Jensen) and W2 (Indochina, provided by Dr. A. J. M. Oduola), were grown in culture flasks of human erythrocytes by a modified version of Trager and Jensen's method as described by Silfen et al. ((1988) Biochem. Pharmacol. 37: 4269-4276)).
(§4) g. Bioassay of iron carrier antimalarial activity. […] After the indicated time of incubation with drug and either previous to or after washing 3 times with 100 volumes growth medium, the cells were supplemented with 6 μCi of either [^3 H]-hypoxanthine or [^3 H]-Ileu (Amersham, England) per well and parasite growth assessed after 24-48 hours by harvesting the labelled cells onto glass-fiber filters (Tamar, Inc. Jerusalem) and counting of the radioactivity.
(§5) It is clear that the efficacy of the agents is primarily correlated with the respective octanol/saline partition coefficient or the hydrophobicity of the amino acid side chain, and only secondarily with their iron binding efficiencies, which are relatively high for all the agents. […] The antimalarial activity of the various chelators was assessed over a 24 hr period of exposure on infected cells (trophozoite stage of P. falciparum) as described in method (g). […]

[7] = tested on: Plasmodium falciparum strain W2; assay: Antimalarial activity in various strains, W2; type: cell-based
Experimental: as §3, §4, §5

[8] = iron(III) complex, infected red cells, 5 μM external Fe

Structure (SMILES)	Proliferation (nucleic acid synthesis) [1]	Proliferation (protein synthesis) [1]	rel. Pcoeff (a) [3]	Relative binding [4]	rel. Fe binding (b) [4]	Pcoeff*Fe binding (a*b) [4]	Proliferation (nucleic acid synthesis) [5]	Proliferation (protein synthesis) [5]	other results
CC(=O)N(O)CCCCCNC(=O)CCC(=O)N(O)CCCCCNC(=O)CCC(=O)N(O)CCCCCN [DFO, desferrioxamine B, reference compound]	neither SF1-ileu nor DFO affected the proliferation	neither SF1-ileu nor DFO affected the proliferation	< 0.056	100	1.16	0.065	neither SF1-ileu nor DFO affected the proliferation	neither SF1-ileu nor DFO affected the proliferation	Inhibitory effect, in words ([2]; DFO 80 μg/ml, 6 hrs exposure): inhibitory effects were dismal; Inhibitory effect, in words ([2]; DFO 80 μg/ml, 20 hrs exposure): substantial inhibition; Uptake into infected vs normal red cells (infected red cells; DFO-Fe, 8 hour time course): approximately twice that of normal red cells; Uptake level lower than that attained by RSF's after 10 minutes (infected red cells; intracellular Fe-DFO after 8 hours vs RSF's after 10 minutes): 20 fold; IC50 ([6]; strain ItG2G1 (chloroquine-sensitive), 48 hour exposure, trophozoites, read-out: IC50): 35 ± 3 µg/mL (≈ 62.4 µM); IC50 ([7]; strain W2 (chloroquine-resistant), 48 hour exposure, trophozoites, read-out: IC50): 31 ± 6 µg/mL (≈ 55.3 µM)
CC[C@H](C)[C@H](NC(=O)CCOCC(CC)(COCCC(=O)N[C@H](C(=O)N(C)O)[C@@H](C)CC)COCCC(=O)N[C@H](C(=O)N(C)O)[C@@H](C)CC)C(=O)N(C)O [SF1-ileu]	neither SF1-ileu nor DFO affected the proliferation	neither SF1-ileu nor DFO affected the proliferation	8.2	25	0.29	2.4	neither SF1-ileu nor DFO affected the proliferation	neither SF1-ileu nor DFO affected the proliferation	inhibition at 10 µg/mL ([2]; 2 h): ~90%; inhibition at 10 µg/mL ([2]; 20 h): > 95%; Inhibitory effect, in words ([2]; 0.5 hr incubation, SF1-ileu 10 μg/ml): major inhibitory effects; logP ([3]; Table 1, free ligand, read-out: Partition coefficient (converted)): 1.15; Pcoeff of free ligand vs iron(III) complex ([3]; not shown): similar; Time to maximum uptake (infected red cells; iron(III) complex, infected red cells): 10 to 15 min; Maximum uptake level (infected red cells; [8]): 4 nmoles/10^10 cells; Uptake t1/2 (infected red cells; [8]): 2 to 3 min; IC50 ([6]; 48 h): 5 ± 2 µg/mL (≈ 6.44 µM); IC50 ([7]; W2, 48 h): 4 ± 1 µg/mL (≈ 5.15 µM)
